Active and inactive are the calls of the source. The calls are words filed in the database; no cut-off is given here.
Legend:
[1] = molecular target: T1, Mitogen-activated protein kinase 14 (Homo sapiens, UniProt Q16539); assay: Inhibition of p38alpha by immunosorbent based kinase assay
[2] = molecular target: T1, Mitogen-activated protein kinase 14; assay: Inhibition of p38alpha-dependent TNFalpha production in human whole blood
[3] = molecular target: RAC-alpha serine/threonine-protein kinase (Homo sapiens) (UniProt P31749); assay: Inhibition of AKT1 at 10 uM
[4] = molecular target: T2, Serine/threonine-protein kinase PLK4 (Homo sapiens) (UniProt O00444); assay: Inhibition of SAK at 10 uM
T2 sequence (whole entry): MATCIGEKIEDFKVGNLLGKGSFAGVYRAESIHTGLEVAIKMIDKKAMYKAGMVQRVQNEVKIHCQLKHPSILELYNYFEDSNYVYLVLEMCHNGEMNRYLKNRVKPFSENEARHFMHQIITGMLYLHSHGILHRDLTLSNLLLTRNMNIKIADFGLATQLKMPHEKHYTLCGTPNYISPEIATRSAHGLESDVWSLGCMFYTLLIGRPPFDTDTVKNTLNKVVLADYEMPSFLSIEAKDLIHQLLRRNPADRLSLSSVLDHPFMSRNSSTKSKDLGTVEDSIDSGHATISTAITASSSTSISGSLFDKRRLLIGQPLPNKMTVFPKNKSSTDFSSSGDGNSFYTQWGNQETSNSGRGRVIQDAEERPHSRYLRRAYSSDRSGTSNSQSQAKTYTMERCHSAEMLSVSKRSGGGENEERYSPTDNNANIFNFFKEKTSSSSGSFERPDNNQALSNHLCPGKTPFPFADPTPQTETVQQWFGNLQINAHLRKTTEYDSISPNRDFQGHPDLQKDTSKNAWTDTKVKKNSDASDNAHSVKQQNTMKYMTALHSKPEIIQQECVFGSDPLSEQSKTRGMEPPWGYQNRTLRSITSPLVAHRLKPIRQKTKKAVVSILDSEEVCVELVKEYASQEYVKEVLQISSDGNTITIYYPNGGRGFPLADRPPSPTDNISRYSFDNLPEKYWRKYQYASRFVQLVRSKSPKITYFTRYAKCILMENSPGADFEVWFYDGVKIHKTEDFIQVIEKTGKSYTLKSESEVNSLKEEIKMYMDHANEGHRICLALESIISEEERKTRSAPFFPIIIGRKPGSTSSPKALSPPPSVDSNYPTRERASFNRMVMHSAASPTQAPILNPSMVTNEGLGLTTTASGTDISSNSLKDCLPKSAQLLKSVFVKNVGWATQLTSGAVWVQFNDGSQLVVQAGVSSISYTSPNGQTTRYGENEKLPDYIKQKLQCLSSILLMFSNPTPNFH

[5] = molecular target: T3, NUAK family SNF1-like kinase 1 (Homo sapiens) (UniProt O60285); assay: Inhibition of ARK5 at 10 uM
T3 sequence (whole entry): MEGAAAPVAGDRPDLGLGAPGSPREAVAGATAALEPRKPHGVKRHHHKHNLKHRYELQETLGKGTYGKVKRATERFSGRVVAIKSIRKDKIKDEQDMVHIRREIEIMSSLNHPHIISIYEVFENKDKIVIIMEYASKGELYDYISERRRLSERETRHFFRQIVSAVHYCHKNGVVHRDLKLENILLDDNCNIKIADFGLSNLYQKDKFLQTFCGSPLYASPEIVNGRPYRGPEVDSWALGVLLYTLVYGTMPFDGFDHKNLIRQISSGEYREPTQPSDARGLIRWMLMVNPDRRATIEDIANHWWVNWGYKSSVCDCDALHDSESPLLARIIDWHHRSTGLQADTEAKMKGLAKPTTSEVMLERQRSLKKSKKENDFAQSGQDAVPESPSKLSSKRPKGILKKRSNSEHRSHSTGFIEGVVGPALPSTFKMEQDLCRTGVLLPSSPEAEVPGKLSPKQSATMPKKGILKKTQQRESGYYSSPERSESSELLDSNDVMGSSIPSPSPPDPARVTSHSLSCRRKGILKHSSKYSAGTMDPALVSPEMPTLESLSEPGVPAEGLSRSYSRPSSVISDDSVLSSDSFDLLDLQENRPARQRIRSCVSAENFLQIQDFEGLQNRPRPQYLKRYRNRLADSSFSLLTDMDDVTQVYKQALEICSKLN

[6] = molecular target: BDNF/NT-3 growth factors receptor (Homo sapiens) (UniProt Q16620); assay: Inhibition of TRKB at 10 uM
[7] = molecular target: Aurora kinase B (Homo sapiens) (UniProt Q96GD4); assay: Inhibition of AuroraB at 10 uM
[8] = molecular target: Proto-oncogene tyrosine-protein kinase Src (Homo sapiens) (UniProt P12931); assay: Inhibition of SRC at 10 uM
[9] = system: Serine/threonine-protein kinase B-raf (Homo sapiens), P15056 [V600E]; assay: Inhibition of BRAF V600E mutant at 10 uM
[10] = molecular target: Vascular endothelial growth factor receptor 2 (Homo sapiens) (UniProt P35968); assay: Inhibition of VEGFR2 at 10 uM
[11] = molecular target: Insulin receptor (Homo sapiens) (UniProt P06213); assay: Inhibition of INSR at 10 uM
[12] = molecular target: Insulin-like growth factor 1 receptor (Homo sapiens) (UniProt P08069); assay: Inhibition of IGF1R at 10 uM
[13] = molecular target: Hepatocyte growth factor receptor (Homo sapiens) (UniProt P08581); assay: Inhibition of MET at 10 uM
[14] = molecular target: Focal adhesion kinase 1 (Homo sapiens) (UniProt Q05397); assay: Inhibition of FAK at 10 uM
[15] = molecular target: Serine/threonine-protein kinase PLK1 (Homo sapiens) (UniProt P53350); assay: Inhibition of PLK1 at 10 uM
[16] = molecular target: Tyrosine-protein kinase receptor UFO (Homo sapiens) (UniProt P30530); assay: Inhibition of AXL at 10 uM
[17] = molecular target: Serine/threonine-protein kinase N1 (Homo sapiens) (UniProt Q16512); assay: Inhibition of PRK1 at 10 uM
[18] = molecular target: Casein kinase II subunit alpha (Homo sapiens) (UniProt P68400); assay: Inhibition of CK2alpha1 at 10 uM
Sequence of Casein kinase II subunit alpha (Homo sapiens) (P68400 whole entry, looked up): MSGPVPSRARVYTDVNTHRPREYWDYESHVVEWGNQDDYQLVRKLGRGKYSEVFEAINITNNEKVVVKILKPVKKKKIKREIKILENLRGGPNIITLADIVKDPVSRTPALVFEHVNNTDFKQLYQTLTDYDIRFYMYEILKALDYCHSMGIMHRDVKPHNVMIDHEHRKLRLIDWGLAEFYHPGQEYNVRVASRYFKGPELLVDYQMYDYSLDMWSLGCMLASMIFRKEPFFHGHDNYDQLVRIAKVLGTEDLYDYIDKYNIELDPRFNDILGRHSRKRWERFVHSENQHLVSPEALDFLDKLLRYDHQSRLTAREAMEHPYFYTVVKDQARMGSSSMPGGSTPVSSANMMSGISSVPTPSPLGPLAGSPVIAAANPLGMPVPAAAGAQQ

Sequence of Serine/threonine-protein kinase PLK1 (Homo sapiens) (P53350 whole entry): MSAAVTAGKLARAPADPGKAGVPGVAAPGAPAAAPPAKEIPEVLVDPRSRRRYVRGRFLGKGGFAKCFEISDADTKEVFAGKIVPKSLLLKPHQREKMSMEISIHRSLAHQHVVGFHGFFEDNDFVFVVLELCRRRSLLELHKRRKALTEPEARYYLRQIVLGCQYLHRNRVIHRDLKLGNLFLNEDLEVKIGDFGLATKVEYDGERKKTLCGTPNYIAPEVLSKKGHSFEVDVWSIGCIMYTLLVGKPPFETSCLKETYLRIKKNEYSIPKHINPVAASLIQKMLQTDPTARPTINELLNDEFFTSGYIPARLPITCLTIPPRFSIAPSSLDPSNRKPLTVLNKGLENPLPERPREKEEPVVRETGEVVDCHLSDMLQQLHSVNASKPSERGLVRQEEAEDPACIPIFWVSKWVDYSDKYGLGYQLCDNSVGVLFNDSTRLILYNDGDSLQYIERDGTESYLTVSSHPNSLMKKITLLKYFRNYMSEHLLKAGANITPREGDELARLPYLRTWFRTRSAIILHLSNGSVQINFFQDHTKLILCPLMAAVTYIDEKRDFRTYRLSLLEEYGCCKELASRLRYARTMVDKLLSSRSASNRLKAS
Sequence of Hepatocyte growth factor receptor (Homo sapiens) (P08581 whole entry): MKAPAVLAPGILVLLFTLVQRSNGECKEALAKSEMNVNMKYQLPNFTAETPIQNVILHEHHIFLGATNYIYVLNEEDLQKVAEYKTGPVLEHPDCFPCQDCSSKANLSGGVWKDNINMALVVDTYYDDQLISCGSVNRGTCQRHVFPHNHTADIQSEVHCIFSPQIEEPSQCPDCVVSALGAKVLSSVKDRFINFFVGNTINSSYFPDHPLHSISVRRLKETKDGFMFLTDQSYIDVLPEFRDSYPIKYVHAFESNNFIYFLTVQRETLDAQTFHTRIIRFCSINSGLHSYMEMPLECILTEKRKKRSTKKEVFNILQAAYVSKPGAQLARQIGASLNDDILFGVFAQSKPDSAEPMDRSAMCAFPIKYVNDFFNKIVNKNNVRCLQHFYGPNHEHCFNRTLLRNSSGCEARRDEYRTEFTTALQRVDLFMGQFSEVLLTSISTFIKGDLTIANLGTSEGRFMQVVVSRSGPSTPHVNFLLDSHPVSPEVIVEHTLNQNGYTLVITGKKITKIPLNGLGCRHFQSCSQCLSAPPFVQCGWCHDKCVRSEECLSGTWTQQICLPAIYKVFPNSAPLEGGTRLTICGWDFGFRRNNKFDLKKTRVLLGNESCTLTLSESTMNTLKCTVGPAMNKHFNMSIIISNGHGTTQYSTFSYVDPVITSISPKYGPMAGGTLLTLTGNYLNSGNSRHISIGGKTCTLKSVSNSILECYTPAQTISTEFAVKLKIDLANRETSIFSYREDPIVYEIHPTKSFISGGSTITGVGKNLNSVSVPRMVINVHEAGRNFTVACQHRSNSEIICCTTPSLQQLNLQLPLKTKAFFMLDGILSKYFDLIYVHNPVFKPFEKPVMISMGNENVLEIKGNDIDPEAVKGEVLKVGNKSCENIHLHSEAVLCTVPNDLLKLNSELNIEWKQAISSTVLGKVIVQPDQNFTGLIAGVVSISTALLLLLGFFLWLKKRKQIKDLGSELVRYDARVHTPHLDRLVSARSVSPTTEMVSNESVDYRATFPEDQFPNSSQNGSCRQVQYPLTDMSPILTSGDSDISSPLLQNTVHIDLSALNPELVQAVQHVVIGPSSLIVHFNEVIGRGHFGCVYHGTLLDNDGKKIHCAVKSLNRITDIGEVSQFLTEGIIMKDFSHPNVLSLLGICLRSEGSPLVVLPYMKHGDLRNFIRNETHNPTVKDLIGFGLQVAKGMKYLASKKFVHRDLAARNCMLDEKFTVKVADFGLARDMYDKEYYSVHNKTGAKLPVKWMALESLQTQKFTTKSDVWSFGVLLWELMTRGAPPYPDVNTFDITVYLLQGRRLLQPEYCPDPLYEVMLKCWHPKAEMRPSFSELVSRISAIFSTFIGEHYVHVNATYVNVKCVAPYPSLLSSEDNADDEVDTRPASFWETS
Sequence of RAC-alpha serine/threonine-protein kinase (Homo sapiens) (P31749 whole entry): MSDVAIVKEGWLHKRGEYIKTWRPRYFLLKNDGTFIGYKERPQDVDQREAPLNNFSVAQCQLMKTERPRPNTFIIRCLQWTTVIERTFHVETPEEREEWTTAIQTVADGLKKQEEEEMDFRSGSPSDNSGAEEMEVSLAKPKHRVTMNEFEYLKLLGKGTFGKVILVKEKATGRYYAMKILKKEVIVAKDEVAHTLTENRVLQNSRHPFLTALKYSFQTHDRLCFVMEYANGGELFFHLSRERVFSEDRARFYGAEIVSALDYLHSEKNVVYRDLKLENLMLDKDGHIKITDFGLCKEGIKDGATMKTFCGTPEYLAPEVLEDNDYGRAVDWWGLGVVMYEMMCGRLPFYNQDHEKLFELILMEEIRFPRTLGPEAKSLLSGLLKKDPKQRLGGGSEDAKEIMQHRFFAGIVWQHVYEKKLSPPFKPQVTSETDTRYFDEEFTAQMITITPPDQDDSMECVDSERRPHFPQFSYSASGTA
Sequence of Focal adhesion kinase 1 (Homo sapiens) (Q05397 2-1052 limits assumed): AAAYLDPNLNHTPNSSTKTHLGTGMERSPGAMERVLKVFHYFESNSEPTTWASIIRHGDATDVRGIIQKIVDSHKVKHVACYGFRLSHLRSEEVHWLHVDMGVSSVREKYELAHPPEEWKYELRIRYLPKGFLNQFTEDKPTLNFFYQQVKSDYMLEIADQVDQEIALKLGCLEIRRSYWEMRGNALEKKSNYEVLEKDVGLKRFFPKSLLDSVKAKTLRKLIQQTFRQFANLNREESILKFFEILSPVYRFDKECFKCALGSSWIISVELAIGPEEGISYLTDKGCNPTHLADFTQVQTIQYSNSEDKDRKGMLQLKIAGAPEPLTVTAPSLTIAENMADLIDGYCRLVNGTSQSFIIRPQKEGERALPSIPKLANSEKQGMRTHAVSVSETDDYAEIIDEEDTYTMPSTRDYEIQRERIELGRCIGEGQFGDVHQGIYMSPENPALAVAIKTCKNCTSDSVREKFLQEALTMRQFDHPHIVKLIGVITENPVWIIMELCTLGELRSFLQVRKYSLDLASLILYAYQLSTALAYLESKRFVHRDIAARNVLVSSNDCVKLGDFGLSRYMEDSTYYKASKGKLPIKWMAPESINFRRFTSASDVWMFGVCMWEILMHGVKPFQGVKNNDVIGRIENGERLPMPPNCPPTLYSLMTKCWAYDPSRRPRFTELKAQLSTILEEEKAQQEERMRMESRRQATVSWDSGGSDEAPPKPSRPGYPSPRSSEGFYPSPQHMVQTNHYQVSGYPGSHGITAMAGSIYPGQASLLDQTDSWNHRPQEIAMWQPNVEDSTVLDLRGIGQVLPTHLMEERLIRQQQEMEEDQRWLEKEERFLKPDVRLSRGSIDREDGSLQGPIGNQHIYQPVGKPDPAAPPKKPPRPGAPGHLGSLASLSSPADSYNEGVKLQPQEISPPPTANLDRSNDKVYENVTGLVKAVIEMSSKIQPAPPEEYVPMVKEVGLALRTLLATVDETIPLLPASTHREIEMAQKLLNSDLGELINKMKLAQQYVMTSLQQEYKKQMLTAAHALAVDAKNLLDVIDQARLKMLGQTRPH
Sequence of Tyrosine-protein kinase receptor UFO (Homo sapiens) (P30530 whole entry): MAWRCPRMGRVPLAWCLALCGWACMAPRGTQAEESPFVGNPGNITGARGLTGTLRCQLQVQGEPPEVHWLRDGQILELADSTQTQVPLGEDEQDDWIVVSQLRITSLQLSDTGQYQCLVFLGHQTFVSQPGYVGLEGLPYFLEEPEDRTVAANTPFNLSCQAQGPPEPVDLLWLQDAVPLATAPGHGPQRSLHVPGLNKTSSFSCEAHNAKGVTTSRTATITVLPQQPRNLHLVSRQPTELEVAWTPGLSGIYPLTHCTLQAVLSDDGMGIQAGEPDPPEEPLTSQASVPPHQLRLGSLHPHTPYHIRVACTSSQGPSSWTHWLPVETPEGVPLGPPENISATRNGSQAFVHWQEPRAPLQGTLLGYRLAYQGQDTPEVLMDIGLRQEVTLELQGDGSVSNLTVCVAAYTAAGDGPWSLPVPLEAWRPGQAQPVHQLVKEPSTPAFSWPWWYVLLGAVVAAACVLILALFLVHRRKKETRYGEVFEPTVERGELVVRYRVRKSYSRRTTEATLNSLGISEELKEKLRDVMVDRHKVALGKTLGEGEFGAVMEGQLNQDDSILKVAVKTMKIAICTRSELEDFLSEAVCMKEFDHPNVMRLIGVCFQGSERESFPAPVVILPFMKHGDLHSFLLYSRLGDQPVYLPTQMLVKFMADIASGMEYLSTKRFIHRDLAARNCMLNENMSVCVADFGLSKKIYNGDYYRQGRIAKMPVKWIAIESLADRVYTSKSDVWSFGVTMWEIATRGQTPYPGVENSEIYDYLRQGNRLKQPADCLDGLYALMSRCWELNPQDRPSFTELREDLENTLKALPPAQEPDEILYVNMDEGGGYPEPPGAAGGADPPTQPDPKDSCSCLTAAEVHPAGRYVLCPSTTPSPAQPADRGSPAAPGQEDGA

SMILES	IC50 [1]	IC50 [2]	inhibition [3]	inhibition [4]	inhibition [5]	inhibition [6]	inhibition [7]	inhibition [8]	inhibition [9]	inhibition [10]	inhibition [11]	inhibition [12]	inhibition [13]	inhibition [14]	inhibition [15]	inhibition [16]	inhibition [17]	inhibition [18]
COc1cccc2c1CCc1cc(Nc3ccccc3N)ccc1C2=O	80 nM	52100 nM	inactive	inactive	inactive	inactive	inactive	inactive	inactive	inactive	inactive	inactive	inactive	inactive	inactive	inactive	inactive	inactive
COc1ccc2c(c1)C(=O)c1ccc(Nc3ccccc3C(F)(F)F)cc1CC2	400 nM	33600 nM	inactive	inactive	inactive	inactive	inactive	inactive	inactive	inactive	inactive	inactive	inactive	inactive	inactive	inactive	inactive	inactive
COc1ccc2c(c1)C(=O)c1ccc(Nc3ccc(F)cc3C)cc1CC2	60 nM	3900 nM	inactive	inactive	inactive	inactive	inactive	inactive	inactive	inactive	inactive	inactive	inactive	inactive	inactive	inactive	inactive	inactive
CC1(C)OC[C@H](COc2ccc3c(c2)C(=O)c2ccc(Nc4ccc(F)cc4F)cc2CC3)O1	20 nM	230 nM	inactive	inactive	inactive	inactive	inactive	inactive	inactive	inactive	inactive	inactive	inactive	inactive	inactive	inactive	inactive	inactive
O=C1c2ccc(Nc3ccc(F)cc3F)cc2CCc2ccc(OCCO)cc21	10 nM	480 nM	inactive	inactive	inactive	inactive	inactive	inactive	inactive	inactive	inactive	inactive	inactive	inactive	inactive	inactive	inactive	inactive
O=C1c2ccc(Nc3ccc(F)cc3F)cc2CCc2ccc(OC[C@@H](O)CO)cc21	–	–	inactive	inactive	inactive	inactive	inactive	inactive	inactive	inactive	inactive	inactive	inactive	inactive	inactive	inactive	inactive	inactive

Reference: ChEMBL document CHEMBL2150974 (J Med Chem, 2012)
